The text below walks through data of patent US6071709A, “Nerve growth factor/receptor complex” (The United States of America as represented by the …, priority 1992, dated 2000).

The target of one assay is T1, gp140^prototrk (Rattus norvegicus, UniProt P35739).
T1 construct: tyrosine phosphorylation in response to NGF addition to PC12 cells; endogenous in cells; host or cells: PC12 cells
To be noted: PC12 cells, after NGF administration (Kaplan et al., 1991); cited from earlier work.

For another assay, the system named is p140^prototrk. The assay can be described thus: Affinity crosslinking of 125I-NGF to gp140trk with HSAB and immunoprecipitation. It counts as binding, rat. To be noted: 0.5 nM 125I-NGF, 2 hr at 4° C., PC12 and rtrk-3T3 cells. The text has this:
FIG. 5 depicts the affinity crosslinking of NGF to gp140trk on PC12 cells and rtrk 3T3 cells. trk receptors were labeled by cross-linking of ^125 I-NGF to cultured cells using HSAB. The cell lines analyzed were PC12 cells (lanes 1-4), rtrk 3T3 cells (lanes 5-9), NIH-3T3 cells (lanes 10-11) and A875 human […] cells (lanes 13-15). Lysates from cells were immunoprecipitated with anti-NGF (lanes 1, 5, 9-14), gp140trk antibody 7-4 which is another trk antibody generated in bacteria against the gp70trk oncogene (7-4), (Martin-Zanca et al., (1989)) (lanes 2 and 6), or gp140trk antibody 43-4 in the absence (lanes […] and 15) or presence (lanes 4 and 8) of 10 μg/ml competing trk peptide. Crosslinking was performed in the presence of excess unlabeled NGF ([…]) in lanes 9, 11, and 14. The antibody 7-4 immunoprecipitates 3-5 fold less gp140 trk than does antibody 43-4. […]
^125 I-NGF was prepared by lactoperoxidase treatment to specific activities of 2500-3500 cpm/fmole. […] After washing in 50 mM lysine in phosphate buffered saline, cells were lysed in buffer containing 1% NP40 and the lysates immunoprecipitated and analyzed on 7.5% SDS-PAGE as described (Kaplan et al., (1990)).
To determine if NGF was capable of binding to p140^prototrk, several cell lines were analyzed for the ability of trk-specific antisera to precipitate receptor-ligand complexes in affinity crosslinking experiments (FIG. 5). […]

A further assay deals with trk. Nature of the assay: Growth factor stimulation of trk transfected 3T3 cells (pJM7-23), COS cell supernatants, Ptyr blot. Type of assay: cell-based. To be noted: trk-expressing 3T3 cells (pJM7-23), 100 μl/ml NGF-COS cell supernatant, 10 minutes at 37° C. As for the experimental part: To study growth factor stimulation in cells transfected with trkB, NIH 3T3 trk transfected 3T3 (pJM7-23), trkB transfected 3T3 cells (pJM8-3) and non-transfected 3T3 cells (control cells) were exposed to media or media containing 100 μl/ml of NGF-COS cell supernatant, 100 μl/ml NT-3 COS cell supernatant, 5 μl/ml human platelet extract, or 50 μl/ml human platelet extract, for 10 minutes at 37° C. The plates were rinsed, lysed, and the trk or trkB was immunoprecipitated with rabbit antisera 443 and protein A Sepharose in the presence or absence of 10 μg/ml blocking peptide. After washing, the beads were denatured in sample buffer, the proteins were separated on a 7.5% gel and transferred to nitrocellulose. The blots were blocked with 2% BSA and probed with an antiphosphotyrosine monoclonal antibody (4G10). After binding of alkaline phosphate-conjugatedrabbit-anti-mouse antibody, the blots were washed and developed with BCIP and NBT.

Sequence of p140^prototrk (P35739 148-395 limits assumed): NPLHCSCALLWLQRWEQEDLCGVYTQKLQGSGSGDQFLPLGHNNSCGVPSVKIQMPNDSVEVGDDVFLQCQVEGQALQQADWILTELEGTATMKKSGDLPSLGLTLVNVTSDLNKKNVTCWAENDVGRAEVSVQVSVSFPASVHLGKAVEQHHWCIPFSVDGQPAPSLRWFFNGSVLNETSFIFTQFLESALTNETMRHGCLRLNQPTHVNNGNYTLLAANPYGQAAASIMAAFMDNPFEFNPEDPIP
T1 sequence (P35739 33-799): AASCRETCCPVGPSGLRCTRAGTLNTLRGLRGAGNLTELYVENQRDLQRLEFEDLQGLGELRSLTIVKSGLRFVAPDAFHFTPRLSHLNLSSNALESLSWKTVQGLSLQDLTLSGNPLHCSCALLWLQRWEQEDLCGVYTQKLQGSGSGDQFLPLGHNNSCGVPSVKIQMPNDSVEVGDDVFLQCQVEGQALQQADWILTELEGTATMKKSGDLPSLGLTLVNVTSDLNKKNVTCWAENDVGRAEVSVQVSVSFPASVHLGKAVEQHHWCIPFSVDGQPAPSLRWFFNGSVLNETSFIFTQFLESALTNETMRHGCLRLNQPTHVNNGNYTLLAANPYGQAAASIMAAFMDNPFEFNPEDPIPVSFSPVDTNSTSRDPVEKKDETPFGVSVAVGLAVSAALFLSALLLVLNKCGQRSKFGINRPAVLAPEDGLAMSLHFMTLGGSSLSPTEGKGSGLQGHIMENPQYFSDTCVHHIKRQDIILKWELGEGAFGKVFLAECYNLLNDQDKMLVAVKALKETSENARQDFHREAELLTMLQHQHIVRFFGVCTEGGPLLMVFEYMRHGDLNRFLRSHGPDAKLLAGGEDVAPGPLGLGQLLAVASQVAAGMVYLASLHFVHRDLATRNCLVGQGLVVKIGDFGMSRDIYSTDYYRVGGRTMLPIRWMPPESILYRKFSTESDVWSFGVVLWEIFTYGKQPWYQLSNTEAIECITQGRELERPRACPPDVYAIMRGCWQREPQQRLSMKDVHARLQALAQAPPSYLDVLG

As for “NGF: neurotrophic polypeptide factor, nerve growth factor; ligand of trk proto-oncogene receptor”, in the assay with gp140^prototrk, the “time to appearance of trk tyrosine phosphorylation” value is 1 min. Besides, the “binding to p140^prototrk (160 kDa crosslinked species)” value with p140^prototrk is listed as “binds”. In addition, the “stimulation of trk tyrosine phosphorylation” value in the assay on trk is given as “stimulated”.
